Where “and” joins values, the source holds several entries; their conditions need not be identical. Equal entries are not always repeated.
Key:
SARS-CoV-2 (SARS-CoV-2) [1] = settings: vero6
[2] = calu3
[3] = a549
SARS-CoV-2 (SARS-CoV-2) [4] = settings: helaace2
[5] = helaace2

NC(=O)CN1Cc2ccc(Cl)cc2C(C(=O)Nc2cncc3ccccc23)C1 (configuration not stated)
IC90 (SARS-CoV-2 (SARS-CoV-2) [1]): < 40 nM

Cc1ccncc1NC(=O)Cc1cc(Cl)cc(OC2CC(=O)N2)c1 (configuration not stated)
CC50 [2]: 63500 nM

O=C(Nc1cncc2ccccc12)C1CCNc2cc(Cl)c(Cl)cc21 (configuration not stated)
CC50 [3]: < 22.9 nM

CCC(CC)COC(=O)[C@H](C)NP(=O)(OC[C@H]1O[C@@](C#N)(c2ccc3c(N)ncnn23)[C@H](O)[C@@H]1O)Oc1ccccc1 (stereo in doubt)
IC50 (SARS-CoV-2 (SARS-CoV-2) [4]): 240 nM

O=C1NCC(C(=O)Nc2cncc3ccccc23)c2cc(Cl)ccc21 (configuration not stated)
IC90 (SARS-CoV-2 (SARS-CoV-2) [1]): > 5000 nM and 2280 nM

CNC(=O)c1cc2c(NC(=O)C3CCOc4ccc(Cl)cc43)cncc2s1 (configuration not stated)
IC50 (SARS-CoV-2 (SARS-CoV-2) [1]): 568 nM

O=C(Nc1cncc2ccccc12)C1CN(S(=O)(=O)CC2CNC2)Cc2ccc(Cl)cc21 (configuration not stated)
CC50 [5]: > 20000 nM
